Experimental findings from US20250320234A1, “LONP1 INHIBITOR COMPOUNDS, USES AND METHODS” (Pretzel Therapeutics, Inc., priority 2021, published 2025) are described below.

As a reminder, the IC50 is the concentration at which inhibition is half-maximal.

In this assay the target is LONP1 (NM_004793.4) (Homo sapiens (Human), UniProt P36776). Put plainly: LONP1 FRET-based protease activity assay with fluorogenic peptide substrate. The class given is biochemical. The following applies: LONP1 15 nM, substrate 3 μM, 1 hour at 37° C.; average of a minimum of two repeats. As for the experimental part: The inhibitory activity of the compounds of the present invention against LONP1, 20S proteasome and other proteases are determined by assays known to persons of ordinary skill in the art (see, e.g., Fishovitz, J. et al. “Active-Site-Directed Chemical Tools for Profiling Mitochondrial Lon Protease” ACS Chem. Biol. 6, 781-788 (2011)).
Chain of LONP1 (NM_004793.4) (P36776 68-959): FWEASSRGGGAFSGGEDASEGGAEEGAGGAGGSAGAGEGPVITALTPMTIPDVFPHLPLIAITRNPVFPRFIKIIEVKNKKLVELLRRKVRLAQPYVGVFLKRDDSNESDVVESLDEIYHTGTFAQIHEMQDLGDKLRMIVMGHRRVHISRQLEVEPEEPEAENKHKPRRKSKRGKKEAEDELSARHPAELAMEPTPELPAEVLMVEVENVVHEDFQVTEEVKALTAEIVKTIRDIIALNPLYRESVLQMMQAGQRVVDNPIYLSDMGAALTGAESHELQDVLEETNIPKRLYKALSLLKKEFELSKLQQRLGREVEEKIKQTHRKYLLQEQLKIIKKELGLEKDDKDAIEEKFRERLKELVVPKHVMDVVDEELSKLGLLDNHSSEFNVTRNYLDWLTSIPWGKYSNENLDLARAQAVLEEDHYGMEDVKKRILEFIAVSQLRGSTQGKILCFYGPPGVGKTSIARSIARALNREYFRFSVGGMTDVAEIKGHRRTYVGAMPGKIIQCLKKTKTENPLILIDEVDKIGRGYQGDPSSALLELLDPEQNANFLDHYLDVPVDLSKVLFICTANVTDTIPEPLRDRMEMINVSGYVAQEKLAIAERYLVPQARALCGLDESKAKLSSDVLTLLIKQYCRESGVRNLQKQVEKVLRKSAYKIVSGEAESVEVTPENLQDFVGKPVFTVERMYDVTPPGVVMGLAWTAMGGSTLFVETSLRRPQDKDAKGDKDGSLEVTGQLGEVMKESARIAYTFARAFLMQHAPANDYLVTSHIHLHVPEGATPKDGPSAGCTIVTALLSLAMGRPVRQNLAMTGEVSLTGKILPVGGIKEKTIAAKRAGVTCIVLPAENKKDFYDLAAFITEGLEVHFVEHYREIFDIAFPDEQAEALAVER
In this Example, LONP1 (NM_004793.4) activity was measured by a FRET-based assay for protease activity using a fluorogenic peptide DabcylYRGIT(2Abu)SORQK(5-FAM) (Cambridge Research Biochemicals) as substrate. LONP1 activity is followed by an increase in fluorescence signal due to the degradation of the peptide. Inhibition of LONP1 protease activity by an inhibitor compound of the disclosure elicits a decrease in the fluorescent signal.
The assay is performed in a 384-well plate (Greiner, cat. #781076) using the following reagents and conditions: substrate (3 μM) was incubated for 1 hour at 37° C. in the presence of LONP1 (15 nM as monomer), 25 mM Tris pH 8.0, 10 mM MgCl2, 0.03 mg/mL […], 0.5 mM DTT, 0.0003% Tween-20, 10 mM NaCl, 0.06 mM ATP and 0.5 mM EGTA in a 15 μL final volume. The LONP1-containing mix (10 μL) was incubated with the test compound for 15 min at 37° C. before adding the peptide-containing mix (5 μL). Solutions were dispensed using a small cassette-Multidrop Combi (Thermo Scientific). Fluorescence was measured using a PheraStar plate reader (BMG Labtech) FI-FRET EX 485 nm Em 520 nm.
Each value is based on an average of a minimum of two repeats.
`COC[C@@H](NC(=O)c1cnccn1)C(=O)N[C@@H](COCc1ccccc1)B(O)O` [Compound 2, ((R)-2-(benzyloxy)-1-((R)-3-methoxy-2-(pyrazine-2-carboxamido)propanamido)ethyl)boronic acid] registered an IC50 of 50 to 500 nM.
Turning to `COC[C@@H](NC(=O)[C@H]1CCC(=O)N1)C(=O)N[C@@H](CCCc1ccccc1)B(O)O` [Compound 8, ((R)-1-((R)-3-methoxy-2-((R)-5-oxopyrrolidine-2-carboxamido)propanamido)-4-phenylbutyl)boronic acid], the IC50 lay in the range of 50 to 500 nM.
In turn, `COC[C@@H](NC(=O)c1cnccn1)C(=O)N[C@@H](CCCc1cccc(Cl)c1)B(O)O` [Compound 15, ((R)-4-(3-chlorophenyl)-1-((R)-3-methoxy-2-(pyrazine-2-carboxamido)propanamido)butyl)boronic acid] registered an IC50 of 50 to 500 nM.
Next, `COC[C@H](C(=O)N[C@@H](CCCc1ccccc1)B(O)O)N1C(=O)c2ccccc2C1=O` [Compound 16, ((R)-1-((R)-2-(1,3-dioxoisoindolin-2-yl)-3-methoxypropanamido)-4-phenylbutyl)boronic acid]: 50 to 500 nM.
Next, `COC[C@@H](NC(=O)c1cnccn1)C(=O)N[C@@H](CCCc1cccc(OC)c1)B(O)O` [Compound 17, ((R)-1-((R)-3-methoxy-2-(pyrazine-2-carboxamido)propanamido)-4-(3-methoxyphenyl)butyl)boronic acid]: 50 to 500 nM.
In turn, `COC[C@@H](NC(=O)c1cnccn1)C(=O)N[C@@H](CC1CC1)B(O)O` [Compound 18, ((R)-2-cyclopropyl-1-((R)-3-methoxy-2-(pyrazine-2-carboxamido)propanamido)ethyl)boronic acid] returned an IC50 of 50 to 500 nM.
`COC[C@H](C(=O)N[C@@H](CCCc1ccccc1)B(O)O)N1C(=O)CCC1=O` [Compound 19, ((R)-1-((R)-2-(2,5-dioxopyrrolidin-1-yl)-3-methoxypropanamido)-4-phenylbutyl)boronic acid]: the IC50 lay in the range of 500 to 5000 nM.
Next, `COC[C@@H](NC(=O)c1cnccn1)C(=O)N[C@H](CCOc1ccc(Cl)c(F)c1)B(O)O` [Compound 26, ((S)-3-(4-chloro-3-fluorophenoxy)-1-((R)-3-methoxy-2-(pyrazine-2-carboxamido)propanamido)propyl)boronic acid]: 500 to 5000 nM; `COC[C@@H](NC(=O)c1cnccn1)C(=O)N[C@@H](CCOc1ccc(Cl)cc1C)B(O)O` [Compound 27, ((R)-3-(4-chloro-2-methylphenoxy)-1-((R)-3-methoxy-2-(pyrazine-2-carboxamido)propanamido)propyl)boronic acid]: 50 to 500 nM.
With `COC[C@@H](NC(=O)c1cnccn1)C(=O)N[C@H](CCOc1ccc(Cl)cc1F)B(O)O` [Compound 29, ((S)-3-(4-chloro-2-fluorophenoxy)-1-((R)-3-methoxy-2-(pyrazine-2-carboxamido)propanamido)propyl)boronic acid], the IC50 was in the range of 500 to 5000 nM.
Next, `CO[C@@H](C)[C@@H](NC(=O)c1cnccn1)C(=O)N[C@@H](CCOc1ccccc1)B(O)O` [Compound 30, ((R)-1-((2R,3S)-3-methoxy-2-(pyrazine-2-carboxamido)butanamido)-3-phenoxypropyl)boronic acid]: 50 to 500 nM; `COC[C@@H](NC(=O)c1cnccn1)C(=O)N[C@@H](CC(C)C)B(O)O` [Compound 38, ((R)-1-((R)-3-methoxy-2-(pyrazine-2-carboxamido)propanamido)-3-methylbutyl)boronic acid]: 50 to 500 nM.
Next, `O=C(N[C@H](CO)C(=O)N[C@@H](CCCc1ccc(O)cc1)B(O)O)c1cnccn1` [Compound 39, ((R)-1-((R)-3-hydroxy-2-(pyrazine-2-carboxamido)propanamido)-4-(4-hydroxyphenyl)butyl)boronic acid]: 500 to 5000 nM; `COC[C@@H](NC(=O)c1cnccn1)C(=O)N[C@@H](CCCc1ccc(O)cc1)B(O)O` [Compound 40, ((R)-4-(4-hydroxyphenyl)-1-((R)-3-methoxy-2-(pyrazine-2-carboxamido)propanamido)butyl)boronic acid]: 500 to 5000 nM; `COC[C@@H](NC(=O)[C@H]1CCCCO1)C(=O)N[C@@H](CCCc1ccccc1)B(O)O` [Compound 41, ((R)-1-((R)-3-methoxy-2-((R)-tetrahydro-2H-pyran-2-carboxamido)propanamido)-4-phenylbutyl)boronic acid]: 50 to 500 nM.
For `COC[C@@H](NC(=O)c1cnccn1)C(=O)N[C@@H](CCC(=O)c1ccccc1)B(O)O` [Compound 53, ((R)-1-((R)-3-methoxy-2-(pyrazine-2-carboxamido)propanamido)-4-oxo-4-phenylbutyl)boronic acid] the value was 500 to 5000 nM.
